According to publication PMC8401404 (Molecules, 2021):

Key:
[1] = tested on: poly(dAdT)2 (DNA, polymer) AT; assay: UV thermal melting at 260 nm; settings: Na+ (sodium cacodylate, I = 0.05 M), pH 7.0, r = [compound]/[polynucleotide phosphate] = 0.3, error ±0.5, per base
[2] = tested on: poly dA-poly dT (DNA, polymer) A/T; assay: UV thermal melting at 260 nm; settings: Na+ (sodium cacodylate, I = 0.05 M), pH 7.0, r = [compound]/[polynucleotide phosphate] = 0.3, error ±0.5, per base
[3] = tested on: A549; assay: MTS cytotoxicity assay, 2D cell culture; settings: Homo sapiens, A549, 72 h, read-out: Cytotoxicity Assay IC50 ± SD; A549 2D, 72 h, MTS; n = 2
Method: (§1) MTS assay gives us information about the number of living cells, in this case, metabolically active cells, whereas the BrdU proliferation assay gives a measure of the cell population in active division phase. Both assays were performed in 2D and 3D assay formats. For the 2D cell assay format, we used classic two-dimensional in vitro assays and as a 3D assay we used a hanging drop proliferation cell assay as previously described. We explored the activity of compounds on three human lung cancer cell lines, A549, HCC827 and NCI-H358. The compound activity was also tested on human lung fibroblast cell line MRC-5. A two-dimensional in vitro viability assay was performed on the MRC-5 cell line to see if tested compounds are cytotoxic on normal cell lines in low concentrations. […] 7.1.
(§2) Test compounds were synthesized by a research group at the Department of Organic Chemistry, Faculty of Chemical Engineering and Technology, University of Zagreb. […] Compounds were diluted 1:3. We transferred 500 nL (for 2D cell culture) or 400 nL (for 3D cell culture) of the compound from a mother plate to test plate by using Mosquito (TTP labtech). DMSO percentage in test concentrations was 0.5–1.0%. Starting concentration of the test compounds and standard compound doxorubicin was 50 µM (2D cell culture) or 100 µM (3D cell culture).
(§3) Cells were grown in 96-well cell star polystyrene plates. We seeded 10,000 cells/well in wells 4 h prior to the treatment with different compounds concentrations and incubated for 72 h. A cell viability assay was performed according to the manufacturer’s instructions, using CellTiter 96 aqueous solution, MTS kit (Promega, Madison, WI, USA). After 0.5–2 h of cell incubation with MTS in 2D cell culture, the plates were read using PE EnVision absorbance at 490 nm.
(§4) Calculation of IC50 data, curves and QC analysis was performed by using Excel tools and GraphPadPrism software (La Jolla, CA, USA), v. […] QC criteria parameters (Z’, S:B, R2, HillSlope) were checked for every IC50 curve.

[4] = tested on: NCI-H358; assay: MTS cytotoxicity assay, 2D cell culture; settings: Homo sapiens, NCI-H358, 72 h, read-out: Cytotoxicity Assay IC50 ± SD; NCI-H358 2D
Method: as §1, §2, §3, §4

[5] = tested on: HCC827; assay: MTS cytotoxicity assay, 2D cell culture; settings: Homo sapiens, HCC827, 72 h, read-out: Cytotoxicity Assay IC50 ± SD; HCC827 2D
Method: as §1, §2, §3, §4

[6] = tested on: E. coli ATCC 25922; assay: Broth microdilution testing (CLSI); type: cell-based, Escherichia coli; settings: Escherichia coli, ATCC25922; broth microdilution, 16–24h at 37 °C; read-out: MIC E. coli ATCC 25922
Method: (§5) Broth microdilution testing was performed according to CLSI (Clinical Laboratory Standards Institute) guidelines. MIC (minimal inhibitory concentration) value was defined as the last tested concentration of compound at which there is no visible growth of bacteria. […] Clinical and Laboratory Standards Institute (CLSI) guidelines.

[7] = tested on: A549; assay: BrdU proliferation assay, 3D hanging drop cell culture; type: cell-based, human; settings: Homo sapiens, A549, 3D, BrdU, n = 2, read-out: Proliferation Assay IC50 ± SD
Method: as §1, §2
(§6) Cells were grown in 96-well Perfecta 3D hanging drop plates 5000 cell/well for 4 days until spheres were formed (and checked under the microscope). After sphere formation cells were treated with compounds followed by 72 h incubation. Cell viability assay was performed according to the manufacturer’s instructions, using CellTiter GLO 3D for 3D cell culture (Promega); cell incubation was 5 min on the shaker followed by 25 min incubation in the dark. Plates were read using PE EnVision luminescence.
(§7) Proliferation assay was performed using Cell Proliferation ELISA, BrdU (Sigma, St. Louis, MO, USA). Briefly, 48 h hours after compound addition, 10 µM of BrdU was added to each well and incubated for the following 24 h. After incubation, a single cell suspension was made for 3D cell culture in the new 96-well plate. Plates were centrifuged and supernatants were removed from each plate (for 2D and 3D cell culture) followed by 60 min incubation at 60 °C. The rest of the proliferation assay was performed according to the manufacturer’s instructions.
as §4

[8] = tested on: NCI-H358; assay: as above; type: cell-based, human; settings: Homo sapiens, NCI-H358, 3D, n = 2, read-out: Proliferation Assay IC50 ± SD
Method: as §1, §2, §6, §7, §4

[9] = tested on: HCC827; assay: as above; type: cell-based, human; settings: Homo sapiens, HCC827, 3D, BrdU, n = 2, read-out: Proliferation Assay IC50 ± SD
Method: as §1, §2, §6, §7, §4

[10] = Solubility in water (stock solutions)
[11] = tested on: ctDNA; assay: Thermal melting experiments; type: binding, calf; settings: r = [compound]/[polynucleotide] = 0.3, pH 7.0, sodium cacodylate buffer I = 0.05 mol dm^−3; error ±0.5 °C
Text: (§8) The thermal stability of helices is usually affected by the non-covalent binding of small molecules to double-stranded nucleic acids. We determined the ΔTm value (the difference between the Tm value of free polynucleotide and a complex with a small molecule) for complexes of selected compounds with ctDNA and an alternating polynucleotide, poly(dAdT)2. […] Because of this, we determined ΔTm value with non-alternating AT-DNA, poly dA-poly dT as well.

[12] = tested on: A549; assay: Cytotoxicity (viability) assay, 3D hanging drop cell culture; settings: Homo sapiens, A549, 72 h, read-out: Cytotoxicity Assay IC50 ± SD; A549 3D
Method: as §1, §2, §6, §4

[13] = tested on: NCI-H358; assay: as above; settings: Homo sapiens, NCI-H358, 72 h, read-out: Cytotoxicity Assay IC50 ± SD; NCI-H358 3D
Method: as §1, §2, §6, §4

[14] = tested on: HCC827; assay: as above; settings: Homo sapiens, HCC827, 72 h, read-out: Cytotoxicity Assay IC50 ± SD; HCC827 3D
Method: as §1, §2, §6, §4

[15] = tested on: poly dA-poly dT; assay: Thermal melting experiments; type: binding; settings: r = 0.3, pH 7.0, sodium cacodylate buffer I = 0.05 mol dm^−3; error ±0.5 °C
Text: as §8

[16] = tested on: poly(dAdT)2; assay: Thermal melting experiments; type: binding; settings: r = 0.3, pH 7.0, sodium cacodylate buffer I = 0.05 mol dm^−3; error ±0.5 °C
Text: as §8

[17] = tested on: A549; assay: BrdU proliferation assay, 2D cell culture; type: cell-based, human; settings: Homo sapiens, A549, 2D, BrdU, n = 2, read-out: Proliferation Assay IC50 ± SD
Method: as §1, §2, §3, §7, §4

[18] = tested on: NCI-H358; assay: BrdU proliferation assay, 2D cell culture; type: cell-based, human; settings: Homo sapiens, NCI-H358, 2D, n = 2, read-out: Proliferation Assay IC50 ± SD
Method: as §1, §2, §3, §7, §4

[19] = tested on: HCC827; assay: BrdU proliferation assay, 2D cell culture; type: cell-based, human; settings: Homo sapiens, HCC827, 2D, BrdU, n = 2, read-out: Proliferation Assay IC50 ± SD
Method: as §1, §2, §3, §7, §4

[20] = tested on: S. aureus ATCC 29213; assay: Broth microdilution testing (CLSI); type: cell-based, Staphylococcus aureus; settings: Staphylococcus aureus, ATCC29213, broth microdilution, 16–24h at 37 °C; read-out: MIC S. aureus ATCC 29213
Method: as §5

[21] = tested on: S. cerevisiae ATCC 7752; assay: Broth microdilution testing (CLSI); type: cell-based, Saccharomyces cerevisiae; settings: Saccharomyces cerevisiae, ATCC7752; broth microdilution, 16–24h at 37 °C; read-out: MIC S. cerevisiae ATCC 7752
Method: as §5

[22] = MTS cytotoxicity assay, 2D cell culture, normal lung fibroblasts; settings: human, MRC-5 normal lung fibroblasts, 2D culture
Method: as §1, §2, §3, §4

[23] = tested on: poly(dAdT)2 (DNA, polymer) AT; assay: CD titration; settings: Na+ (sodium cacodylate, I = 0.05 M), pH 7.0, 25 °C, polynucleotide 3.0 × 10^-5 M

Compound | ΔTm [1] | ΔTm [2] | IC50 [3] | IC50 [4] | IC50 [5] | MIC [6] | IC50 [7] | IC50 [8] | IC50 [9] | IC50 [12] | IC50 [13] | IC50 [14] | IC50 [17] | IC50 [18] | IC50 [19] | melting point | MIC [20] | MIC [21] | IC50 at 72 h [22] | also measured
CC(C)NC(=N)c1ccc2nc(-c3ccc(-c4ccc([N+](=O)[O-])cc4)o3)sc2c1 | 4.8 °C | 5.5 °C |  |  |  |  |  |  |  |  |  |  |  |  |  |  |  |  |  | 
Cl.O=[N+]([O-])c1ccc(-c2ccc(-c3nc4ccc(C5=NCCN5)cc4s3)o2)cc1 [Compound 6, 6-(4,5-Dihydro-1H-imidazol-2-yl)-2-[5-(4-nitrophenyl)furan-2-yl]benzothiazole hydrochloride] | 3.6 °C | 5.6 °C | 2.12 ± 0.21 µM | 0.85 ± 0.05 µM | 5.13 ± 0.97 µM | > 100 µM | 5.52 ± 0.1 µM | 2.36 ± 1.17 µM | 7.63 ± 5 µM | 4.01 ± 0.95 µM | 1.73 ± 0.01 µM | 7.02 ± 3.25 µM | 2.27 ± 0.13 µM | 1.1 ± 0.001 µM | 16.7 ± 9.39 µM | 287 to 292 °C | > 100 µM | 1.6 µM | 3.11 ± 0.26 µM | solubility [10]: 1720 µM; ΔTm ctDNA [11]: 3.2 °C; ΔTm Poly dA-poly dT [15]: 5.6 °C; ΔTm poly (dAdT)2 [16]: 3.6 °C
N#Cc1ccc2[nH]c(-c3ccc(-c4ccc(Cl)cc4)o3)nc2c1 [Compound 13, 2-[5-(4-Chlorophenyl)furan-2-yl]-5(6)-cyanobenzimidazole] |  |  | > 50 µM | > 50 µM | > 50 µM | > 100 µM | > 100 µM | > 100 µM | > 100 µM | > 100 µM | > 100 µM | > 100 µM | 22.7 ± 0.54 µM | 15.7 ± 0.86 µM | > 50 µM | 242 to 246 °C | > 100 µM | > 100 µM | > 50 µM | 
N#C/C(=C\c1ccc(-c2ccc(Cl)cc2)o1)c1nc2ccccc2[nH]1 [Compound 20, (E)-2-(Benzimidazol-2-yl)-3-[5-(4-chlorophenyl)furan-2-yl]acrylonitrile] |  |  | > 50 µM | 31.1 ± 4.42 µM | 43.5 ± 8.17 µM | > 100 µM | > 100 µM | > 100 µM | 0.16 ± 0.11 µM | > 100 µM | > 100 µM | 9.48 ± 1.15 µM | 43.9 ± 54.3 µM | 14.4 ± 6.46 µM | > 50 µM | 292 to 294 °C | > 100 µM | > 100 µM | > 50 µM | 
CC(C)NC(=N)c1ccc2nc(-c3ccc(-c4ccc(Cl)cc4)o3)sc2c1 | 3.6 °C | 4.3 °C |  |  |  |  |  |  |  |  |  |  |  |  |  |  |  |  |  | binding [23]: yes
N#Cc1ccc2nc(-c3ccc(-c4ccc([N+](=O)[O-])cc4)o3)sc2c1 [Compound 4, 6-Cyano-2-[5-(4-nitrophenyl)furan-2-yl]benzothiazole] |  |  | > 50 µM | > 50 µM | > 50 µM | > 100 µM | > 100 µM | > 100 µM | > 100 µM | > 100 µM | > 100 µM | > 100 µM | > 50 µM | > 50 µM | > 50 µM | 276 to 279 °C | > 100 µM | > 100 µM | > 50 µM | 
N#Cc1ccc2[nH]c(-c3ccc(-c4ccc([N+](=O)[O-])cc4)o3)nc2c1 [Compound 10, 5(6)-Cyano-2-[5-(4-nitrophenyl)furan-2-yl]benzimidazole] |  |  | > 50 µM | > 50 µM | > 50 µM | > 100 µM | > 100 µM | > 100 µM | > 100 µM | > 100 µM | > 100 µM | > 100 µM | > 50 µM | > 50 µM | > 50 µM | 242 to 246 °C | > 100 µM | > 100 µM | > 50 µM | 
N#C/C(=C\c1ccc(-c2ccc([N+](=O)[O-])cc2)o1)c1nc2ccccc2[nH]1 [Compound 17, (E)-2-(Benzimidazol-2-yl)-3-[5-(4-nitrophenyl)furan-2-yl]acrylonitrile] |  |  | > 50 µM | > 50 µM | > 50 µM | > 100 µM | > 100 µM | > 100 µM | > 100 µM | > 100 µM | > 100 µM | > 100 µM | > 50 µM | > 50 µM | > 50 µM | 273 to 274 °C | > 100 µM | > 100 µM | > 50 µM | 
N#Cc1ccc2nc(-c3ccc(-c4ccc(Cl)cc4)o3)sc2c1 [Compound 7, 2-[5-(4-Chlorophenyl)furan-2-yl]-6-cyanobenzothiazole] |  |  | > 50 µM | > 50 µM | > 50 µM | > 100 µM | > 100 µM | > 100 µM | > 100 µM | > 100 µM | > 100 µM | > 100 µM | > 50 µM | > 50 µM | > 50 µM | 235 to 237 °C | > 100 µM | > 100 µM | > 50 µM | 
